Results taken from patent US20240018121A1, “NOVEL HETEROAROMATIC COMPOUNDS EXHIBITING ANTIFUNGAL ACTIVITY AND THEIR METHOD OF USE” (FOX CHASE CHEMCIAL DIVERSITY CENTER, INC., priority 2020, published 2024).
Converted amounts (≈) assume the structure as drawn. Counter-ions that a name gives are not always drawn. Like-named read-outs stand apart in the source and are kept apart here.

What was measured:
Assay type in all cases: cell-based
[1] = test system: Aspergillus flavus AFL1 (ATCC MYA-3631); assay: Fungal MIC Protocol, Aspergillus flavus; conditions: Aspergillus flavus, read-out: MIC Aspergillus flavus 3631
Procedure, shortened: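 Aspergillus flavus spores were grown on Potato Dextrose Agar at 35° C. for 3-5 days, harvested in PBS pH 7.4+0.1% Tween-20 with glass beads, and diluted in RPMI/MOPS to an OD530 of 0.002 (about 2×10^4 cfu/mL). 50 ul of spores were combined with 50 μl of serially diluted compound in 96-well round bottom plates and incubated at 35° C. for 48 hours.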

[2] = test system: Aspergillus fumigatus T33439 (ATCC MYA-3626); assay: Fungal MIC Protocol, Aspergillus fumigatus; conditions: Aspergillus fumigatus, read-out: MIC Aspergillus fumigatus 3626
Procedure, shortened: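 Aspergillus fumigatus was grown on Potato Dextrose Agar at 35° C. for 3-5 days, and spores were collected with PBS pH 7.4+0.1% Tween-20 plus glass beads. Spores were diluted in RPMI/MOPS to OD530 0.002 (about 2×10^4 cfu/mL). 50 ul was added to 50 μl of serially diluted compound in round bottom 96-well plates, run in duplicate, and incubated at 35° C. for 48 hours.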

[3] = test system: Fusarium falciforme FS1 (ATCC MYA-3636); assay: Fungal MIC Protocol, Fusarium falciforme; conditions: Fusarium falciforme, read-out: MIC Fusarium falciforme 3636
Procedure, shortened: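 Fusarium falciforme spores were raised on Potato Dextrose Agar at 35° C. for 3-5 days, collected in PBS pH 7.4+0.1% Tween-20 with glass beads, and diluted in RPMI/MOPS pH 7.0 to OD530 0.005 (about 2×10^4 cfu/mL). 50 ul spores were added to 50 μl duplicate serial compound dilutions in round bottom 96-well plates and incubated at 35° C. for 48 hours.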

[4] = test system: Fusarium solani (ATCC 58877); assay: Fungal MIC Protocol, Fusarium solani; conditions: Fusarium solani, read-out: MIC Fusarium solani 58877
Procedure, shortened: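 Fusarium solani spores were grown on Potato Dextrose Agar in tissue culture flasks at 35° C. for 3-5 days, harvested with PBS pH 7.4+0.1% Tween-20 and glass beads, and diluted in RPMI/MOPS to an OD530 of 0.005 (about 2×10^4 cfu/mL). Equal 50 ul volumes of spores and serially diluted compound were combined in 96-well round bottom plates and incubated 48 hours at 35° C.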

[5] = test system: Mucor circinelloides 1463(62) (ATCC 26759); assay: Fungal MIC Protocol, Mucor circinelloides (MIC-50); conditions: Mucor circinelloides, read-out: MIC-50 Mucorales circinelloides 26579
Procedure, shortened: (§1)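 Spores from PDA cultures (Aspergillus, Fusarium at 35 °C; Mucor at room temperature) diluted in RPMI/MOPS pH 7.0 to ~2×10^4 cfu/mL. Ten serial dilutions starting from 200 ug/mL in medium (before 1:1 mixing with spores), in duplicate; 48 h at 35 °C. MIC is the lowest concentration giving >50% visually scored growth inhibition.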

[6] = test system: Mucor ramosissimus 057718 (ATCC 90286); assay: Fungal MIC Protocol, Mucor ramosissimus (MIC-50); conditions: Mucor ramosissimus, read-out: MIC-50 Mucorales ramosissimus 90286
Procedure, shortened: as §1

Candida albicans GDH2346 = assay: Candida Minimal Inhibitory Concentration (MIC); conditions: Candida albicans, read-out: MIC-50 Candida albicans GDH2346
Experimental: Candida Minimal Inhibitory Concentration (MIC): RPMI/MOPS media is prepared by dissolving 8.4 g RPMI 1640, 34.52 g MOPS buffer and 2 g glucose in 900 mL water. The pH is adjusted to 7.0 with NaOH. The total volume is brought to 1 L and the resulting solution is filter sterilized. The Candida stock is streaked on a Yeast extract Peptone Dextrose (YPD) agar plate and grown at 35° C. for isolation of single colonies. Compounds of the disclosure are diluted to 200 μg/mL in RPMI/MOPS (4.8 ul of 10 mg/mL DMSO stock in 240 ul media). Ten (10) 1:2 serial dilutions are prepared in RPMI/MOPS in a 96-well round bottom plate. Fifty (50) μl of compound dilutions are transferred in duplicate to a sterile tissue culture-treated 96-well flat-bottom, black-sided polypropylene plate. A single colony of Candida from the YPD plate is re-suspended in 5 mL phosphate buffered saline (BS) and optical density (OD) at 600 nm is measured. The suspension is adjusted to OD=1.0 and a 1:1000 dilution is prepared in RPMI/MOPS. Fifty (50) ul aliquots of the diluted yeast are added to the plates containing 50 μL of compound to all wells except 12E-H. Control wells include: 12 A-D cells, no compound and 12 E-H no cells, no compound. The plates are mixed gently by hand and placed in Ziplok bags in a 35° C. incubator. The OD600 is measured at 24 and 48 hours.

[7] = 100% growth inhibition at 48 hours
[8] = ATCC58877, 100% growth inhibition at 48 hours
[9] = ATCC26759, 50% growth inhibition at 48 hours
[10] = ATCC90286, 50% growth inhibition at 48 hours
[11] = GDH2346, 50% growth inhibition at 48 hours

SMILES	MIC [1, 7]	MIC [2, 7]	MIC [3, 7]	MIC [4, 8]	MIC50 [5, 9]	MIC50 [6, 10]	MIC50 (Candida albicans GDH2346; [11])	MIC ([1]; 48 h)	MIC ([2]; 48 h)	MIC ([3]; 48 h)	MIC ([4]; ATCC58877, 48 h)	MIC50 ([5]; ATCC26759, 48 h)	MIC50 ([6]; ATCC90286, 48 h)	MIC50 (Candida albicans GDH2346; GDH2346, 48 h)
Cc1cc(-n2nnc(-c3ccc(C4=CCN(C(=N)N)CC4)cc3)c2C)ccc1C1=CCN(C(=N)N)CC1 [Example 33, 4-(4-{4-[4-(1-Carbamimidoyl-1,2,3,6-tetrahydropyridin-4-yl)phenyl]-5-methyl-1H-1,2,3-triazol-1-yl}-2-methylphenyl)-1,2,3,6-tetrahydropyridne-1-carboximidamide]	0.04 µg/mL (≈ 0.0807 µM)	0.63 µg/mL (≈ 1.27 µM)	0.05 µg/mL (≈ 0.101 µM)	0.025 µg/mL (≈ 0.0504 µM)	3.13 µg/mL (≈ 6.32 µM)	12.5 µg/mL (≈ 25.2 µM)	0.08 µg/mL (≈ 0.161 µM)	–	–	–	–	–	–	–
Cn1c(-c2ccc(C3=CCN(C(=N)N)C3)cc2)nnc1-c1ccc(C2=CCN(C(=N)N)C2)cc1 [Example 29]	0.39 µg/mL (≈ 0.86 µM)	< 0.1 µg/mL	< 0.1 µg/mL	0.39 µg/mL (≈ 0.86 µM)	6.25 µg/mL (≈ 13.8 µM)	6.25 µg/mL (≈ 13.8 µM)	1.56 µg/mL (≈ 3.44 µM)	–	–	–	–	–	–	–
Cc1cc(C2=CCN(C(=N)N)CC2)ccc1-c1nnc(-c2ccc(C3=CCN(C(=N)N)CC3)cc2C)n1C [Example 22, 4,4′-(4,4′-(4-Methyl-4H-1,2,4-triazole-3,5-diyl)bis(3-methyl-4,1-phenylene))bis(5,6-dihydropyridine-1(2H)-carboximidamide)]	0.39 µg/mL (≈ 0.765 µM)	0.78 µg/mL (≈ 1.53 µM)	0.78 µg/mL (≈ 1.53 µM)	0.2 µg/mL (≈ 0.392 µM)	1.56 µg/mL (≈ 3.06 µM)	6.25 µg/mL (≈ 12.3 µM)	0.16 µg/mL (≈ 0.314 µM)	–	–	–	–	–	–	–
N=C(N)N1CC=C(c2ccc(-c3nnc(-c4ccc(C5=CCN(C(=N)N)CC5)cc4F)n3Cc3ccccc3)cc2)CC1 [Example 7, 4-(4-(4-Benzyl-5-(4-(1-carbamimidoyl-1,2,3,6-tetrahydropyridin-4-yl)-2-fluorophenyl)-4H-1,2,4-triazol-3-yl)phenyl)-5,6-dihydropyridine-1(2H)-carboximidamide]	0.78 µg/mL (≈ 1.35 µM)	< 0.1 µg/mL	< 0.1 µg/mL	0.39 µg/mL (≈ 0.677 µM)	0.78 µg/mL (≈ 1.35 µM)	1.56 µg/mL (≈ 2.71 µM)	3.13 µg/mL (≈ 5.44 µM)	–	–	–	–	–	–	–
COCCn1c(-c2ccc(C3=CCN(C(=N)N)CC3)cc2F)nnc1-c1ccc(C2=CCN(C(=N)N)CC2)cc1F [Example 68, 4-(4-{5-[4-(1-carbamimidoyl-1,2,3,6-tetrahydropyridin-4-yl)-2-fluorophenyl]-4-(2-methoxyethyl)-4H-1,2,4-triazol-3-yl}-3-fluorophenyl)-1,2,3,6-tetrahydropyridine-1-carboximidamide trifluoroacetate]	–	–	–	–	–	–	–	< 0.1 µg/mL	0.1 µg/mL	< 0.1 µg/mL	< 0.1 µg/mL	0.39 µg/mL	0.78 µg/mL	0.2 µg/mL
N=C(N)N1CC=C(c2ccc(-c3nnc(-c4ccc(C5=CCN(C(=N)N)CC5)cc4F)o3)cc2)CC1 [Example 50, 4-(4-(5-(4-(1-Carbamimidoyl-1,2,3,6-tetrahydropyridin-4-yl)-2-fluorophenyl)-1,3,4-oxadiazol-2-yl)phenyl)-5,6-dihydropyridine-1(2H)-carboximidamide]	0.39 µg/mL (≈ 0.802 µM)	0.78 µg/mL (≈ 1.6 µM)	< 0.1 µg/mL	1.56 µg/mL (≈ 3.21 µM)	50 µg/mL (≈ 103 µM)	25 µg/mL (≈ 51.4 µM)	0.78 µg/mL (≈ 1.6 µM)	–	–	–	–	–	–	–
N=C(N)N1CC=C(c2ccc(-c3nnc(-c4ccc(C5=CCN(C(=N)N)CC5)cc4F)n3CCO)c(F)c2)CC1 [Example 57, 4,4′-(4,4′-(4-(2-Hydroxyethyl)-4H-1,2,4-triazole-3,5-diyl)bis(3-fluoro-4,1-phenylene))bis(5,6-dihydropyridine-1(2H)-carboximidamide)]	0.2 µg/mL (≈ 0.365 µM)	< 0.1 µg/mL	< 0.1 µg/mL	< 0.1 µg/mL	0.39 µg/mL (≈ 0.712 µM)	3.13 µg/mL (≈ 5.72 µM)	0.2 µg/mL (≈ 0.365 µM)	–	–	–	–	–	–	–
CC(C)n1c(-c2ccc(C3=CCN(C(=N)N)CC3)cc2F)nnc1-c1ccc(C2=CCN(C(=N)N)CC2)cc1F [Example 13, 4,4-(4,4-(4-Isopropyl-4H-1,2,4-triazole-3,5-diyl)bis(3-fluoro-4,1-phenylene))bis(5,6-dihydropyridine-1(2H)-carboximidamide)]	0.2 µg/mL (≈ 0.367 µM)	< 0.1 µg/mL	0.78 µg/mL (≈ 1.43 µM)	6.25 µg/mL (≈ 11.5 µM)	0.39 µg/mL (≈ 0.715 µM)	1.56 µg/mL (≈ 2.86 µM)	0.2 µg/mL (≈ 0.367 µM)	–	–	–	–	–	–	–
